# Key:
# [1] = target: Serine/threonine-protein kinase PAK 4 (Homo sapiens) (UniProt O96013); assay: Inhibition of PAK4 (unknown origin) at 0.49 uM relative to control
# [2] = target: Protein-tyrosine kinase 2-beta (Homo sapiens) (UniProt Q14289); assay: Inhibition of PYK2 (unknown origin) at 0.49 uM relative to control
# [3] = target: Epidermal growth factor receptor (Homo sapiens) (UniProt P00533); assay: Inhibition of EGFR (unknown origin) at 0.49 uM relative to control
# [4] = target: Serine/threonine-protein kinase Nek9 (Homo sapiens) (UniProt Q8TD19); assay: Inhibition of NEK9 (unknown origin) at 0.49 uM relative to control
# [5] = target: Protein kinase C theta type (Homo sapiens) (UniProt Q04759); assay: Inhibition of PKC-theta (unknown origin) at 0.49 uM relative to control
# [6] = target: Misshapen-like kinase 1 (Homo sapiens) (UniProt Q8N4C8); assay: Inhibition of MINK (unknown origin) at 0.49 uM relative to control
# [7] = target: Homeodomain-interacting protein kinase 2 (Homo sapiens) (UniProt Q9H2X6); assay: Inhibition of HIPK2 (unknown origin) at 0.49 uM relative to control
# Chain of Homeodomain-interacting protein kinase 2 (Homo sapiens) (Q9H2X6 whole entry, looked up, canonical isoform): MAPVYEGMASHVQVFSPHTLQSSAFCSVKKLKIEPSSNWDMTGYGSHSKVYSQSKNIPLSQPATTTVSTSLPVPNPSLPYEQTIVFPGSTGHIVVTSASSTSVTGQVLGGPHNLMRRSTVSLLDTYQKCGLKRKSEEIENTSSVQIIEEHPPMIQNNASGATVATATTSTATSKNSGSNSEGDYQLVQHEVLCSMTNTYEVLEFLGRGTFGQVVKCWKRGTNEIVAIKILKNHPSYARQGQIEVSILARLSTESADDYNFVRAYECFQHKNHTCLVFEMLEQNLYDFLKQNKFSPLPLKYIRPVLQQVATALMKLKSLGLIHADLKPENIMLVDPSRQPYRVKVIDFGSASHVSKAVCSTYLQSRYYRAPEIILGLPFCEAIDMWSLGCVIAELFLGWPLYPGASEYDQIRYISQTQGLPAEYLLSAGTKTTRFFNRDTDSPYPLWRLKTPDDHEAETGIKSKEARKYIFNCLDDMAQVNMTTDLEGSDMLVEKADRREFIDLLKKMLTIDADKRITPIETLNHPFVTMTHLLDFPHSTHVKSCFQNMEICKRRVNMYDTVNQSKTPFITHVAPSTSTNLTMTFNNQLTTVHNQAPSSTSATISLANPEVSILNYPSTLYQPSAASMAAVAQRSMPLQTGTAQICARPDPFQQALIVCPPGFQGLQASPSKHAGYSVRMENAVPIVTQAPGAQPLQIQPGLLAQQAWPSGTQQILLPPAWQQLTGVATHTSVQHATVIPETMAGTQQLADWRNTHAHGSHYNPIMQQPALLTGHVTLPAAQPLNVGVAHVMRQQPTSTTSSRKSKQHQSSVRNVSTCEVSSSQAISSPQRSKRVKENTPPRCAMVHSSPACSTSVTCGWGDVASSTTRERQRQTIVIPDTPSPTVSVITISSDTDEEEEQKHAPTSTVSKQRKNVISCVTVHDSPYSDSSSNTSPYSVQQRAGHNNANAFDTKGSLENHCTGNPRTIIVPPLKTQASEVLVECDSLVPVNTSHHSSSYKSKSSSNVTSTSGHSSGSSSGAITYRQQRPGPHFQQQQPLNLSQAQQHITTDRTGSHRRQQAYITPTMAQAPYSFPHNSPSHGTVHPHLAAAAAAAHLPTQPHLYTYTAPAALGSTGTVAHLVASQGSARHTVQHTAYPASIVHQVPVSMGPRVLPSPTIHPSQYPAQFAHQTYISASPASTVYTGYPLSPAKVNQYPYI
# [8] = target: Casein kinase I isoform delta (Homo sapiens) (UniProt P48730); assay: Inhibition of CK1-delta (unknown origin) at 0.49 uM relative to control
# Chain of Casein kinase I isoform delta (Homo sapiens) (P48730 whole entry, looked up, canonical isoform): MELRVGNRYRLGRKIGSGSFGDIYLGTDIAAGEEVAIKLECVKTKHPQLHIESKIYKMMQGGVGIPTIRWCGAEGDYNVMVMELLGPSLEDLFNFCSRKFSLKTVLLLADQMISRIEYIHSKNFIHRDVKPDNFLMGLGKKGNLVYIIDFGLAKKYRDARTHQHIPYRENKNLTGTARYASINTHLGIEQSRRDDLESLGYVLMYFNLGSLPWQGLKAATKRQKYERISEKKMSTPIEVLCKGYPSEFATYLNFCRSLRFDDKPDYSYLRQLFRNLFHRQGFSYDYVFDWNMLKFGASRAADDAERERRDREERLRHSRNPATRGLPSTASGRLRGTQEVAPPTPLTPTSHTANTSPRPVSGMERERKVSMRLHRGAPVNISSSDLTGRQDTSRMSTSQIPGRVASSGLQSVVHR
# [9] = target: Mitogen-activated protein kinase 14 (Homo sapiens) (UniProt Q16539); assay: Inhibition of p38a (unknown origin) at 0.45 uM relative to control
# Chain of Mitogen-activated protein kinase 14 (Homo sapiens) (Q16539 whole entry): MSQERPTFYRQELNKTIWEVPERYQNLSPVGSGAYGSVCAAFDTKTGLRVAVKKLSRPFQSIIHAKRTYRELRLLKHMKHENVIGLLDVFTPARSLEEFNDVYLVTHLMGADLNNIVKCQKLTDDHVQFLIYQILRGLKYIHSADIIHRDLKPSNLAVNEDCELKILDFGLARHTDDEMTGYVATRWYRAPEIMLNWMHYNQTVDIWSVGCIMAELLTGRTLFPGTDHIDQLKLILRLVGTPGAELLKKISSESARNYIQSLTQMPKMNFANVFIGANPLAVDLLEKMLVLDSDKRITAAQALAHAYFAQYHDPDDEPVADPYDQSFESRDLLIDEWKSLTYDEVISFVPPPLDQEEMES
# [10] = target: Inhibitor of nuclear factor kappa-B kinase subunit epsilon (Homo sapiens) (UniProt Q14164); assay: Inhibition of IKBKE (unknown origin) at 0.45 uM relative to control
# Chain of Inhibitor of nuclear factor kappa-B kinase subunit epsilon (Homo sapiens) (Q14164 whole entry): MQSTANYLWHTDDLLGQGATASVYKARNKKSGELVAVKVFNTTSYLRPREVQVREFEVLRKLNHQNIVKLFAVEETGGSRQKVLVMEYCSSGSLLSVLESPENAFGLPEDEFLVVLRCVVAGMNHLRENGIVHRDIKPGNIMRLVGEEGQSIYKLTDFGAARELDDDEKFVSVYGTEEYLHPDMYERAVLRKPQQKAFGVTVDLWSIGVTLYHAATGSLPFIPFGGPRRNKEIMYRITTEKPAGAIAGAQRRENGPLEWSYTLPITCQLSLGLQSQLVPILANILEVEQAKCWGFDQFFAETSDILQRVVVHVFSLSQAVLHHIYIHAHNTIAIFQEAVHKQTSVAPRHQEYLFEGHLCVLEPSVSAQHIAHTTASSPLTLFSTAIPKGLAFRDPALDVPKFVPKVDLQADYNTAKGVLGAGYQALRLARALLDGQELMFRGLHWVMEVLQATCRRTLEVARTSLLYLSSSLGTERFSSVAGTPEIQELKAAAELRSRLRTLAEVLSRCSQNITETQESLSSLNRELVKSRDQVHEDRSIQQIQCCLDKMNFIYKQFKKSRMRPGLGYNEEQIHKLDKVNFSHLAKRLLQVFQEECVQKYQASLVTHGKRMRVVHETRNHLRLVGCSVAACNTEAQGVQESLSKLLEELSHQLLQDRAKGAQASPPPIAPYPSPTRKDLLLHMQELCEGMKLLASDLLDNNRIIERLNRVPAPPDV
# [11] = target: Tyrosine-protein kinase Fyn (Homo sapiens) (UniProt P06241); assay: Inhibition of FYN (unknown origin) at 0.45 uM relative to control
# [12] = tested on: Tyrosine-protein kinase ABL1 (Homo sapiens), P00519 [E255K]; assay: Inhibition of ABL1 E255K mutant (unknown origin) at 0.45 uM relative to control
# [13] = target: Tyrosine-protein kinase receptor UFO (Homo sapiens) (UniProt P30530); assay: Inhibition of AXL (unknown origin) at 0.45 uM relative to control
# Chain of Tyrosine-protein kinase receptor UFO (Homo sapiens) (P30530 whole entry): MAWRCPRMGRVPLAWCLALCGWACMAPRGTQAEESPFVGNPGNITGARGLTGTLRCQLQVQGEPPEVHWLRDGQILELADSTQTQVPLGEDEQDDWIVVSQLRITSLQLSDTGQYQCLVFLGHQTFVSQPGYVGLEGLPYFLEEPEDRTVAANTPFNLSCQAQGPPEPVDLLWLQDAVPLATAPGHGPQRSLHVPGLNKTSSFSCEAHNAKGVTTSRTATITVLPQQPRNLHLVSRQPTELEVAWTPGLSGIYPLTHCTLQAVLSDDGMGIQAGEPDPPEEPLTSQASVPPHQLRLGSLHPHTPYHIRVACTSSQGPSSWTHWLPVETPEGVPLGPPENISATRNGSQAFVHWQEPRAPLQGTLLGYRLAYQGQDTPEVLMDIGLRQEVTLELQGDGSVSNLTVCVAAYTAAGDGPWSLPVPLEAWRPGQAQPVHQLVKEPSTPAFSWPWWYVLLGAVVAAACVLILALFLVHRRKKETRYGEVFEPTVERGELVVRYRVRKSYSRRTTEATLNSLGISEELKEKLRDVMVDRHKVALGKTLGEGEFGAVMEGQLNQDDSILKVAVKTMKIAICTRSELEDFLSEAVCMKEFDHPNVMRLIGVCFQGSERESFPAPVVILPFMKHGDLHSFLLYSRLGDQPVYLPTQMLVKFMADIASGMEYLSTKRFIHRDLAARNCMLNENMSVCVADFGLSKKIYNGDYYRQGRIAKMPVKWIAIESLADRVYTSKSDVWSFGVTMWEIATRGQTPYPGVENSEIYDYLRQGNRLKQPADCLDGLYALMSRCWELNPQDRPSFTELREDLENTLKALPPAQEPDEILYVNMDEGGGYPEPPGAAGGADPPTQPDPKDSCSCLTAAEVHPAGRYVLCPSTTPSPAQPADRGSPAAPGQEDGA
# [14] = target: MAP kinase-activated protein kinase 3 (Homo sapiens) (UniProt Q16644); assay: Inhibition of MAPKAPK3 (unknown origin) at 0.45 uM relative to control
# Chain of MAP kinase-activated protein kinase 3 (Homo sapiens) (Q16644 whole entry, looked up): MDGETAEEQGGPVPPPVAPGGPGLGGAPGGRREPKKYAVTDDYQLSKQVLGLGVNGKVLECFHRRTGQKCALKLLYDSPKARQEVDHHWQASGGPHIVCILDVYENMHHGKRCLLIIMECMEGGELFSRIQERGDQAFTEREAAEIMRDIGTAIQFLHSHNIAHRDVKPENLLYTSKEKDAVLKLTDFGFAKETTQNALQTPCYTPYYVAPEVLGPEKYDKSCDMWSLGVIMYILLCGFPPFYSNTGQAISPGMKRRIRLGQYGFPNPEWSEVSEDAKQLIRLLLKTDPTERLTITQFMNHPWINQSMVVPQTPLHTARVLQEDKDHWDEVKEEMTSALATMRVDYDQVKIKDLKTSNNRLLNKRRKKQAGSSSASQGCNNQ
# [15] = target: STE20-like serine/threonine-protein kinase (Homo sapiens) (UniProt Q9H2G2); assay: Inhibition of SLK (unknown origin) at 0.45 uM relative to control
# [16] = target: Insulin-like growth factor 1 receptor (Homo sapiens) (UniProt P08069); assay: Inhibition of IGF1R (unknown origin) at 0.45 uM relative to control
# [17] = target: Macrophage-stimulating protein receptor (Homo sapiens) (UniProt Q04912); assay: Inhibition of MST1R (unknown origin) at 0.45 uM relative to control
# [18] = target: T1, Serine/threonine-protein kinase D2 (Homo sapiens) (UniProt Q9BZL6); assay: Inhibition of PKD2 (unknown origin) at 0.078 uM relative to control
# T1 sequence (whole entry): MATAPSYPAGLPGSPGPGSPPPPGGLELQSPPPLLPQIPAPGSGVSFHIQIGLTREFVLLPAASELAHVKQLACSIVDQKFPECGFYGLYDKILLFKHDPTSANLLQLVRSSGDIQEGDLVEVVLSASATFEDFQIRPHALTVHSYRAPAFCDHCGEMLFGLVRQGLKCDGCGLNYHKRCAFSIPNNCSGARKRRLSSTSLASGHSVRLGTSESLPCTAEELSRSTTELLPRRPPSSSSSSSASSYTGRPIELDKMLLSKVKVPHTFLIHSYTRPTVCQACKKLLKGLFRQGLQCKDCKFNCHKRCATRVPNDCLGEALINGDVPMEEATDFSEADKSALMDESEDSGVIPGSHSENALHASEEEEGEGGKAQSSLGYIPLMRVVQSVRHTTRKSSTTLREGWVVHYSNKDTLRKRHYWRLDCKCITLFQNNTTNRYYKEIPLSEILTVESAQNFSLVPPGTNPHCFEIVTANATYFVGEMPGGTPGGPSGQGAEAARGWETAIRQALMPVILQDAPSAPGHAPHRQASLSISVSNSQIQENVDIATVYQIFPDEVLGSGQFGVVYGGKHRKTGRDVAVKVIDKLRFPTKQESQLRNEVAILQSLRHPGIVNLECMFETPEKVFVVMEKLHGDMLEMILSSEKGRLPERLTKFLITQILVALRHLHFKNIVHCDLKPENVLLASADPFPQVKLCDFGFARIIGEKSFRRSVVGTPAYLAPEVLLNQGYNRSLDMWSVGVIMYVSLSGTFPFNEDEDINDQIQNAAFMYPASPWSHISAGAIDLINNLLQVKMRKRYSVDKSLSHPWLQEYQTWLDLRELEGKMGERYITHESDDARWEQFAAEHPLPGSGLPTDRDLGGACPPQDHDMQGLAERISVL
# [19] = Volume of distribution in C57BL/6J mouse at 30 mg/kg, iv by LC-MS/MS analysis; type: ADME, organism-based; details: in vivo
# [20] = target: Ribosomal protein S6 kinase alpha-1 (Homo sapiens) (UniProt Q15418); assay: Inhibition of RSK1 (unknown origin) at 0.078 uM relative to control
# [21] = target: RAF proto-oncogene serine/threonine-protein kinase (Homo sapiens) (UniProt P04049); assay: Inhibition of c-Raf (unknown origin) at 0.078 uM relative to control
# Chain of Protein-tyrosine kinase 2-beta (Homo sapiens) (Q14289 whole entry, looked up): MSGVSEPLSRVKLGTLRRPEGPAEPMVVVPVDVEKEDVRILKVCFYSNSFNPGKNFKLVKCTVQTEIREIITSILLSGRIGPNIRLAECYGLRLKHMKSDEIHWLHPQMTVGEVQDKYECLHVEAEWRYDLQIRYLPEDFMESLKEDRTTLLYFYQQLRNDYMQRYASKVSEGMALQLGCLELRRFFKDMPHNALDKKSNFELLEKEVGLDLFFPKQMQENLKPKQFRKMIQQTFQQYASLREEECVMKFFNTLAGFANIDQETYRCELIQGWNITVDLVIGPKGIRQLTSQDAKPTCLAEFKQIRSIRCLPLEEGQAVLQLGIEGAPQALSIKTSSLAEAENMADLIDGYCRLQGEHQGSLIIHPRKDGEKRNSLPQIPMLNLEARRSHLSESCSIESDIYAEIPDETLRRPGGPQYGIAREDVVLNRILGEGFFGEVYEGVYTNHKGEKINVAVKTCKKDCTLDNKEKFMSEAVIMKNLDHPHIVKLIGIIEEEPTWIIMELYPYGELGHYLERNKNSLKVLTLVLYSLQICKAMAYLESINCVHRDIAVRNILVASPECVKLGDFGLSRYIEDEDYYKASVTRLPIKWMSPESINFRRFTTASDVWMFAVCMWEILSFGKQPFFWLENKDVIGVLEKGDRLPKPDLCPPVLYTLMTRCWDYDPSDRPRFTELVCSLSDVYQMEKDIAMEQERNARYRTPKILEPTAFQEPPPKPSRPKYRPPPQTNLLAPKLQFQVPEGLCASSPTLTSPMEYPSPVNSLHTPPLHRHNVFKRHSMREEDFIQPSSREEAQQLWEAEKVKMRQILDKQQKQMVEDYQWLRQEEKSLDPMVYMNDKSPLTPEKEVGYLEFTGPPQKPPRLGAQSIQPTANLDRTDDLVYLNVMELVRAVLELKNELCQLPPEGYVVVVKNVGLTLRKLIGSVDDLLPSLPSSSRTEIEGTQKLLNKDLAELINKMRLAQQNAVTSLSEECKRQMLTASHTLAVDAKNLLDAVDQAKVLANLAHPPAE
smiles,measurement,setting,value
Cc1[nH]nc(C2CC2)c1-c1ccc2c(NC(=O)C3CC3)noc2c1,inhibition,[1],-3%
same,inhibition,[2],1.3%
same,inhibition,[3],-7.3%
same,inhibition,[4],1.7%
same,inhibition,[5],6%
same,inhibition,[6],-0.3%
same,inhibition,[7],2.7%
same,inhibition,[8],6.7%
Cc1n[nH]c(C)c1-c1ccc2c(NC(=O)c3ccc(N4CCN(C)CC4)cc3)n[nH]c2c1,inhibition,[9],1.7%
same,inhibition,[10],6.3%
same,inhibition,[11],46%
same,inhibition,[12],72.7%
same,inhibition,[13],0.3%
same,inhibition,[14],4%
same,inhibition,[15],62.3%
same,inhibition,[16],3%
same,inhibition,[17],-1%
COC(=O)Nc1noc2cc(-c3c(-c4ccccn4)n[nH]c3C)ccc12,inhibition,[18],-0.7%
same,Vd,[19],0.91 L/kg
same,inhibition,[20],0.3%
same,inhibition,[21],0.7%

# Reference: ChEMBL document CHEMBL4052759, “Discovery of DS79182026: A potent orally active hepcidin production inhibitor” (Bioorg Med Chem Lett, 2017)
